Results on 3 compounds are retold here after publication PMC10470519, “CryoEM analysis of the essential native UDP-glucose pyrophosphorylase from Aspergillus nidulans reveals key conformations for activity regulation and function” (mBio, 2023).

The target in one test is T1, AnUGP (Aspergillus nidulans, UniProt C8VK50).
T1 construct: gene ANIA_09148; homooctamer
T1 sequence (C8VK50 1-514): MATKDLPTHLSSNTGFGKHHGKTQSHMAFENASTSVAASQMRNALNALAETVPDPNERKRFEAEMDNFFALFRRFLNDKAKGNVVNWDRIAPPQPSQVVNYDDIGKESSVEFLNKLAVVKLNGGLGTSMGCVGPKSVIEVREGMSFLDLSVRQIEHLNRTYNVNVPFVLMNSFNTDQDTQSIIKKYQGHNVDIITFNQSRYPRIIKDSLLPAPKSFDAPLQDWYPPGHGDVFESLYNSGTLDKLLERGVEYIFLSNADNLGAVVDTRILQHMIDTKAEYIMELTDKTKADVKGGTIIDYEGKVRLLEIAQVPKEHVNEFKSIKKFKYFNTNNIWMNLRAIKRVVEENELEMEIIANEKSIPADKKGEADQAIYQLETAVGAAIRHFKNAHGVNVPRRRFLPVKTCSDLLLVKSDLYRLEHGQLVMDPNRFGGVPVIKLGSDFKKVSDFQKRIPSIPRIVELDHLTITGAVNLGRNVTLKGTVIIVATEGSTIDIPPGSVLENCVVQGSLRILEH
The experiment in a line: malachite green phosphate assay coupled to inorganic pyrophosphatase. Type of test: biochemical. As to conditions: 0.25 mM UTP, 0.25 mM Glc-1-P, 2 mM MgCl2, 100 mM NaCl, 50 mM Tris-HCl pH 7.5, 30 °C.

In test [1] the target is UDP-glucose pyrophosphorylase from Aspergillus nidulans (Aspergillus nidulans). The experiment in a line: SEC; Superose 6 GL 10/300 in buffer A (50 mM Tris, 200 mM NaCl, 2 mM β-mercaptoethanol, pH 7.8); peak around 14.5 mL. A general note: Size exclusion chromatography separates by hydrodynamic size, large species first.
Test [2] shares this target. As to the kind of experiment: cryo-EM structure; native AnUGP in buffer A at 0.18 mg/mL, vitrified on Quantifoil R1.2/1.3 grids; Titan Krios 300 kV; C1, D4 and locally refined maps; 3D variability analysis.

What is called stoichiometry N is the number of molecules, sites or subunits per partner or assembly.

As to `O=P(O)(O)O[C@H]1O[C@H](CO)[C@@H](O)[C@H](O)[C@H]1O` [Glc-1-P], the “malachite green phosphate assay coupled to inorganic pyrophosphatase” value at AnUGP is “AnUGP catalyzes the condensation reaction between UTP and Glc-1-P to produce UDP-Glc and PPi”.
Turning to `O=c1ccn([C@@H]2O[C@H](COP(=O)(O)OP(=O)(O)OP(=O)(O)O)[C@@H](O)[C@H]2O)c(=O)[nH]1` [UTP], the “malachite green phosphate assay coupled to inorganic pyrophosphatase” value on AnUGP was “the enzyme was specific for UTP and unable to use ATP or GTP”.
In the case of “UDP-glucose pyrophosphorylase from Aspergillus nidulans (enzyme)”, the stoichiometry N in test [1] and in test [2] was 8 each time.
